# Reference: PubChem BioAssay AID220 (DTP/NCI, 2004)
# “And” between values parts separate entries of the source, which are not always exact repeats. Identical values can stand only once. Records with an inconclusive call do not appear.
# Test system: CD8F1 mice, subcutaneous mammary adenocarcinoma, T/C%
# Assay: NCI In Vivo Anticancer Drug Screen. Data for tumor model Mammary Adenocarcinoma CD8F1 (subcutaneous) in CD8F1
# Conditions: higher = larger tumour
# How it was run: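 Mice carrying transplanted tumors received test compound, and survival or tumor size was recorded. Each value is the treated-group measurement divided by the corresponding measurement in vehicle-dosed controls.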
# [1] = endpoint: median tumor weight change, dose: 125.0 mg/kg/injection, schedule: Q01DX001 (ip), vehicle: saline
# [2] = endpoint: median tumor weight change, dose: 250.0 mg/kg/injection, schedule: Q01DX001 (ip), vehicle: saline
# [3] = endpoint: median tumor weight (est.), dose: 10.0 mg/kg/injection, schedule: Q07DX005 (ip), vehicle: Klucel (hydroxypropylcellulose) (HPC)
# [4] = endpoint: median tumor weight (est.), dose: 20.0 mg/kg/injection, schedule: Q07DX005 (ip), vehicle: Klucel (hydroxypropylcellulose) (HPC)
structure (smiles),measurement,setting,value
Nc1nc([Se])c2ncn(C3OC(CO)C(O)C3O)c2n1 (configuration not stated),T/C,"endpoint: median tumor weight (est.), dose: 2.0 mg/kg/injection, schedule: Q07DX005 (ip), vehicle: saline",92 % of control
same,T/C,"endpoint: median tumor weight (est.), dose: 4.0 mg/kg/injection, schedule: Q07DX005 (ip), vehicle: saline",54 % of control
same,T/C,"endpoint: median tumor weight (est.), dose: 8.0 mg/kg/injection, schedule: Q07DX005 (ip), vehicle: saline",68 % of control
same,T/C,"endpoint: median tumor weight (est.), dose: 8.0 mg/kg/injection, schedule: Q07DX005 (ip), vehicle: suspension in saline",24 % of control
same,T/C,"endpoint: median tumor weight (est.), dose: 16.0 mg/kg/injection, schedule: Q07DX005 (ip), vehicle: saline",70 % of control
same,T/C,"endpoint: median tumor weight (est.), dose: 16.0 mg/kg/injection, schedule: Q07DX005 (ip), vehicle: suspension in saline",20 % of control
same,T/C,"endpoint: median tumor weight (est.), dose: 32.0 mg/kg/injection, schedule: Q07DX005 (ip), vehicle: saline",30 % of control
same,T/C,"endpoint: median tumor weight (est.), dose: 32.0 mg/kg/injection, schedule: Q07DX005 (ip), vehicle: suspension in saline",51 % of control
same,T/C,"endpoint: median tumor weight (est.), dose: 64.0 mg/kg/injection, schedule: Q07DX005 (ip), vehicle: saline",27 % of control
same,T/C,"endpoint: median tumor weight (est.), dose: 64.0 mg/kg/injection, schedule: Q07DX005 (ip), vehicle: suspension in saline",12 % of control
C=C(NC(=O)C(=C)NC(=O)c1csc(C2=NC3c4csc(n4)C4NC(=O)c5csc(n5)C(C(C)(O)C(C)O)NC(=O)C5CSC(=N5)/C(=C/C)NC(=O)C(C(C)O)NC(=O)c5csc(n5)C3(CC2)NC(=O)C(C)NC(=O)C(=C)NC(=O)C(=C)NC(=O)C(C(C)C)NC2C=Cc3c(C(C)O)cc(nc3C2O)C(=O)OC4C)n1)C(N)=O (configuration not stated),T/C,[1],156 % of control
same,T/C,[2],106 % of control
same,T/C,"endpoint: median tumor weight change, dose: 500.0 mg/kg/injection, schedule: Q01DX001 (ip), vehicle: saline",110 % of control
same,T/C,"endpoint: median tumor weight change, dose: 1000.0 mg/kg/injection, schedule: Q01DX001 (ip), vehicle: saline",86 % of control
CC(=O)NC(C=O)OCC=O (configuration not stated),T/C,"endpoint: median tumor weight change, dose: 62.5 mg/kg/injection, schedule: Q01DX001 (ip), vehicle: water",85 % of control
same,T/C,"endpoint: median tumor weight change, dose: 125.0 mg/kg/injection, schedule: Q01DX001 (ip), vehicle: water",118 % of control
same,T/C,"endpoint: median tumor weight change, dose: 250.0 mg/kg/injection, schedule: Q01DX001 (ip), vehicle: water",118 % of control
same,T/C,"endpoint: median tumor weight change, dose: 500.0 mg/kg/injection, schedule: Q01DX001 (ip), vehicle: water",34 % of control
C=CC(=O)NCNC(=O)C=C,T/C,"endpoint: median tumor weight (est.), dose: 12.5 mg/kg/injection, schedule: Q07DX005 (ip), vehicle: suspension in saline",104 % of control
same,T/C,"endpoint: median tumor weight (est.), dose: 25.0 mg/kg/injection, schedule: Q07DX005 (ip), vehicle: suspension in saline",85 % of control
same,T/C,"endpoint: median tumor weight (est.), dose: 50.0 mg/kg/injection, schedule: Q07DX005 (ip), vehicle: suspension in saline",80 % of control
same,T/C,"endpoint: median tumor weight (est.), dose: 100.0 mg/kg/injection, schedule: Q07DX005 (ip), vehicle: suspension in saline",43 % of control
same,T/C,"endpoint: median tumor weight (est.), dose: 200.0 mg/kg/injection, schedule: Q07DX005 (ip), vehicle: suspension in saline",32 % of control
same,T/C,"endpoint: median tumor weight (est.), dose: 400.0 mg/kg/injection, schedule: Q07DX005 (ip), vehicle: suspension in saline",9 % of control
same,T/C,"endpoint: median tumor weight change, dose: 62.5 mg/kg/injection, schedule: Q01DX001 (ip), vehicle: saline",78 % of control
same,T/C,"endpoint: median tumor weight change, dose: 62.5 mg/kg/injection, schedule: Q01DX001 (ip), vehicle: suspension in saline",90 % of control
same,T/C,"endpoint: median tumor weight change, dose: 72.0 mg/kg/injection, schedule: Q01DX001 (ip), vehicle: saline",105 % of control
same,T/C,"endpoint: median tumor weight change, dose: 109.0 mg/kg/injection, schedule: Q01DX001 (ip), vehicle: saline",150 % of control
same,T/C,[1],46 % of control
same,T/C,"endpoint: median tumor weight change, dose: 125.0 mg/kg/injection, schedule: Q01DX001 (ip), vehicle: suspension in saline",42 % of control
same,T/C,"endpoint: median tumor weight change, dose: 165.0 mg/kg/injection, schedule: Q01DX001 (ip), vehicle: saline",71 % of control
same,T/C,[2],50 % of control and 74 % of control
same,T/C,"endpoint: median tumor weight change, dose: 250.0 mg/kg/injection, schedule: Q01DX001 (ip), vehicle: suspension in saline",-28 % of control
same,T/C,"endpoint: median tumor weight change, dose: 379.0 mg/kg/injection, schedule: Q01DX001 (ip), vehicle: saline",62 % of control
C[C@]12CC[C@H]3[C@@H](CCC4=C[C@@H](OC5OCC(OC6OC(CO)C(O)C(O)C6O)C(O)C5O)CC[C@@]43C=O)[C@@]1(O)CCC2C1=CC(=O)OC1 (some centres not stated),T/C,"endpoint: median tumor weight (est.), dose: 0.62 mg/kg/injection, schedule: Q07DX005 (ip), vehicle: Klucel (hydroxypropylcellulose) (HPC)",63 % of control
same,T/C,"endpoint: median tumor weight (est.), dose: 1.25 mg/kg/injection, schedule: Q07DX005 (ip), vehicle: Klucel (hydroxypropylcellulose) (HPC)",85 % of control and 89 % of control
same,T/C,[3],93 % of control and 108 % of control
same,T/C,[4],106 % of control
same,T/C,"endpoint: median tumor weight (est.), dose: 40.0 mg/kg/injection, schedule: Q07DX005 (ip), vehicle: Klucel (hydroxypropylcellulose) (HPC)",93 % of control
CCCCC1CCCCCCc2[nH]c(/C=C3\N=C(c4ccc[nH]4)C=C3OC)cc21 (configuration not stated),T/C,"endpoint: median tumor weight change, dose: 0.38 mg/kg/injection, schedule: Q01DX001 (ip), vehicle: saline with Tween-80",92 % of control
same,T/C,"endpoint: median tumor weight change, dose: 0.75 mg/kg/injection, schedule: Q01DX001 (ip), vehicle: saline with Tween-80",78 % of control
same,T/C,"endpoint: median tumor weight change, dose: 1.5 mg/kg/injection, schedule: Q01DX001 (ip), vehicle: saline with Tween-80",104 % of control
same,T/C,"endpoint: median tumor weight change, dose: 3.0 mg/kg/injection, schedule: Q01DX001 (ip), vehicle: saline with Tween-80",102 % of control
CC1CN1C(=O)NCCCCCCNC(=O)N1CC1C (configuration not stated),T/C,"endpoint: median tumor weight (est.), dose: 5.0 mg/kg/injection, schedule: Q07DX005 (ip), vehicle: Klucel (hydroxypropylcellulose) (HPC)",75 % of control and 86 % of control
same,T/C,[3],40 % of control and 55 % of control
same,T/C,[4],6 % of control and 19 % of control
O=C1CN(CN2CCOCC2)C(=O)CN1CN1CCOCC1,T/C,"endpoint: median tumor weight (est.), dose: 12.5 mg/kg/injection, schedule: Q07DX005 (ip), vehicle: saline",170 % of control
same,T/C,"endpoint: median tumor weight (est.), dose: 50.0 mg/kg/injection, schedule: Q07DX005 (ip), vehicle: saline",153 % of control
same,T/C,"endpoint: median tumor weight (est.), dose: 200.0 mg/kg/injection, schedule: Q07DX005 (ip), vehicle: saline",100 % of control
F[B-](F)(F)F,T/C,"endpoint: median tumor weight (est.), dose: 12.5 mg/kg/injection, schedule: Q07DX005 (ip), vehicle: gum acacia",109 % of control
same,T/C,"endpoint: median tumor weight (est.), dose: 25.0 mg/kg/injection, schedule: Q07DX005 (ip), vehicle: gum acacia",88 % of control
same,T/C,"endpoint: median tumor weight (est.), dose: 50.0 mg/kg/injection, schedule: Q07DX005 (ip), vehicle: gum acacia",83 % of control
same,T/C,"endpoint: median tumor weight (est.), dose: 100.0 mg/kg/injection, schedule: Q07DX005 (ip), vehicle: gum acacia",96 % of control
same,T/C,"endpoint: median tumor weight (est.), dose: 200.0 mg/kg/injection, schedule: Q07DX005 (ip), vehicle: gum acacia",74 % of control
same,T/C,"endpoint: median tumor weight (est.), dose: 400.0 mg/kg/injection, schedule: Q07DX005 (ip), vehicle: gum acacia",90 % of control
C[C@@]1(CO)[C@H](O)CC[C@@]2(C)[C@H]1CC[C@H]1C[C@@H]3C[C@@]12CC[C@@]3(O)COC(=O)CN,T/C,"endpoint: median tumor weight change, dose: 9.88 mg/kg/injection, schedule: Q01DX001 (ip), vehicle: Klucel (hydroxypropylcellulose) (HPC)",78 % of control
same,T/C,"endpoint: median tumor weight change, dose: 18.75 mg/kg/injection, schedule: Q01DX001 (ip), vehicle: Klucel (hydroxypropylcellulose) (HPC)",68 % of control
same,T/C,"endpoint: median tumor weight change, dose: 37.5 mg/kg/injection, schedule: Q01DX001 (ip), vehicle: Klucel (hydroxypropylcellulose) (HPC)",98 % of control
same,T/C,"endpoint: median tumor weight change, dose: 75.0 mg/kg/injection, schedule: Q01DX001 (ip), vehicle: Klucel (hydroxypropylcellulose) (HPC)",84 % of control
same,T/C,"endpoint: median tumor weight change, dose: 62.5 micrograms/kg/injection, schedule: Q01DX001 (ip), vehicle: saline + alcohol",170 % of control
same,T/C,"endpoint: median tumor weight change, dose: 125.0 micrograms/kg/injection, schedule: Q01DX001 (ip), vehicle: saline + alcohol",90 % of control
same,T/C,"endpoint: median tumor weight change, dose: 250.0 micrograms/kg/injection, schedule: Q01DX001 (ip), vehicle: saline + alcohol",115 % of control
same,T/C,"endpoint: median tumor weight change, dose: 1000.0 micrograms/kg/injection, schedule: Q01DX001 (ip), vehicle: saline + alcohol",106 % of control
CC[C@](C)(O)C(=O)O[C@H]1C(=O)O[C@@H]2C[C@H]3C(C)=CC(=O)[C@@H](O)[C@]3(C)[C@H]3[C@@]4(O)OC[C@]32[C@@H]1[C@@H](C)[C@H]4O,T/C,"endpoint: median tumor weight (est.), dose: 0.06 mg/kg/injection, schedule: Q07DX005 (ip), vehicle: Klucel (hydroxypropylcellulose) (HPC)",116 % of control
same,T/C,"endpoint: median tumor weight (est.), dose: 0.12 mg/kg/injection, schedule: Q07DX005 (ip), vehicle: Klucel (hydroxypropylcellulose) (HPC)",108 % of control
same,T/C,"endpoint: median tumor weight (est.), dose: 0.5 mg/kg/injection, schedule: Q07DX005 (ip), vehicle: Klucel (hydroxypropylcellulose) (HPC)",73 % of control
same,T/C,"endpoint: median tumor weight change, dose: 1.0 mg/kg/injection, schedule: Q01DX001 (ip), vehicle: Klucel (hydroxypropylcellulose) (HPC)",79 % of control
NNC(=S)N/N=C/c1ccccn1,T/C,"endpoint: median tumor weight (est.), dose: 6.25 mg/kg/injection, schedule: Q07DX005 (ip), vehicle: saline with Tween-80",112 % of control
same,T/C,"endpoint: median tumor weight (est.), dose: 12.5 mg/kg/injection, schedule: Q07DX005 (ip), vehicle: saline with Tween-80",84 % of control
same,T/C,"endpoint: median tumor weight (est.), dose: 25.0 mg/kg/injection, schedule: Q07DX005 (ip), vehicle: saline with Tween-80",81 % of control
same,T/C,"endpoint: median tumor weight (est.), dose: 50.0 mg/kg/injection, schedule: Q07DX005 (ip), vehicle: saline with Tween-80",59 % of control
C=C1N(C)c2ccccc2C1(C)C,T/C,"endpoint: median tumor weight change, dose: 125.0 mg/kg/injection, schedule: Q01DX001 (ip), vehicle: saline with Tween-80",115 % of control
